Measured values: PubChem BioAssay (NCI)
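Protocol summary: plate cells (96-well), add compound at 5 concentrations, incubate 48 h, interpolate endpoints linearly. TGI marks complete inhibition of growth.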

Experiments:
Test in all cases: DTP human tumour cell line panel, 48 h
HS 578T breast = system: HS 578T breast
K-562 leukemia = system: K-562 leukemia
RXF 393 renal = system: RXF 393 renal
KM12 colon = system: KM12 colon
ACHN renal = system: ACHN renal
MDA-MB-435 = system: MDA-MB-435
OVCAR-3 ovarian = system: OVCAR-3 ovarian
786-0 renal = system: 786-0 renal
M14 melanoma = system: M14 melanoma
A498 renal = system: A498 renal
OVCAR-8 ovarian = system: OVCAR-8 ovarian
OVCAR-5 ovarian = system: OVCAR-5 ovarian
T-47D breast = system: T-47D breast
MOLT-4 leukemia = system: MOLT-4 leukemia
HOP-92 NSCLC = system: HOP-92 NSCLC
DU-145 prostate = system: DU-145 prostate
UACC-257 melanoma = system: UACC-257 melanoma
MDA-N = system: MDA-N
SNB-75 CNS = system: SNB-75 CNS
SN12C renal = system: SN12C renal
NCI-H522 lung = system: NCI-H522 lung
UACC-62 melanoma = system: UACC-62 melanoma
OVCAR-4 ovarian = system: OVCAR-4 ovarian
MALME-3M melanoma = system: MALME-3M melanoma
NCI/ADR-RES ovarian = system: NCI/ADR-RES ovarian
SK-MEL-28 melanoma = system: SK-MEL-28 melanoma
RPMI-8226 leukemia = system: RPMI-8226 leukemia
HT29 colon = system: HT29 colon
MDA-MB-231 breast = system: MDA-MB-231 breast
HCT-15 colon = system: HCT-15 colon
SK-MEL-2 melanoma = system: SK-MEL-2 melanoma
SF-268 CNS = system: SF-268 CNS
CCRF-CEM leukemia = system: CCRF-CEM leukemia
CAKI-1 renal = system: CAKI-1 renal
COLO 205 colon = system: COLO 205 colon
BT-549 breast = system: BT-549 breast
EKVX NSCLC = system: EKVX NSCLC
PC-3 prostate = system: PC-3 prostate
SNB-19 CNS = system: SNB-19 CNS
A549 NSCLC = system: A549 NSCLC
IGROV1 ovarian = system: IGROV1 ovarian
U251 CNS = system: U251 CNS
SK-OV-3 ovarian = system: SK-OV-3 ovarian
MCF7 breast = system: MCF7 breast
NCI-H460 lung = system: NCI-H460 lung
HCT-116 colon = system: HCT-116 colon
HCC-2998 colon = system: HCC-2998 colon
HOP-62 NSCLC = system: HOP-62 NSCLC
SF-295 CNS = system: SF-295 CNS
UO-31 renal = system: UO-31 renal
SF-539 CNS = system: SF-539 CNS
HL-60(TB) leukemia = system: HL-60(TB) leukemia
NCI-H226 lung = system: NCI-H226 lung
SR leukemia = system: SR leukemia
SK-MEL-5 melanoma = system: SK-MEL-5 melanoma
TK-10 renal = system: TK-10 renal
LOX IMVI melanoma = system: LOX IMVI melanoma
NCI-H23 lung = system: NCI-H23 lung
SW-620 colon = system: SW-620 colon

Measured: TGI

COc1cccc2cc(C(=O)NC34CC5CC(CC(C5)C3)C4)c(=N)oc12
> 77.9 µM: RPMI-8226 leukemia
> 96.7 µM: HS 578T breast
> 55 µM: HOP-92 NSCLC
> 88.7 µM: NCI-H522 lung
> 50.6 µM: OVCAR-8 ovarian
> 79.9 µM: RXF 393 renal
> 73.2 µM: OVCAR-3 ovarian
> 85.7 µM: IGROV1 ovarian
> 65.2 µM: CCRF-CEM leukemia
7.63 µM: UO-31 renal
> 74.4 µM: T-47D breast
> 56.1 µM: SF-539 CNS
29.6 µM: HL-60(TB) leukemia
23.2 µM: MOLT-4 leukemia
> 47.4 µM: SR leukemia
> 100 µM: all other assays above
